One assay concerns the target T1, GFP-LRRK2 G2019S (Homo sapiens, UniProt Q5S007, G2019S).
T1 construct: expressed in transfected cells
Put plainly: Immunoprecipitation/Western analysis of LRRK2 phosphorylation at Ser910, Ser935, Ser955, Ser973 in HEK293 T-REx GFP-LRRK2 G2019S cells. Format: cell-based. The following applies: 20 µM, 90 min, HEK293 GFP-LRRK2 G2019S, Figure 6.

The test system of the next assay is LRRK2-GFP. The assay can be described thus: Fluorescence microscopy of LRRK2-GFP localization in U-2 OS cells. The following applies: 3 µM 90 min, Figure 1A. In kind it is cell-based, human. As to the method:
U-2 OS cells were transduced with BacMam LRRK2-GFP as described above. The cells were then plated on chambered coverslips (LabTek II/Nunc, Rochester, NY) at 50% confluency and incubated for 48 hours. The growth medium was replaced with phenol-red free DMEM® (Life Technologies, Carlsbad, CA) before live imaging. Cells were imaged under the same conditions for each mutant using an inverted microscope (Nikon Eclipse TE2000-S) equipped with a PlanApo 60X objective and a charge-coupled device camera (Diagnostic Instruments SPOT RT 2.3.0) using SPOT Advanced software.

For assay [1], the target named is T2, LRRK2 G2019S (Homo sapiens, UniProt Q5S007, G2019S). The assay can be described thus: TR-FRET cellular assay for LRRK2 Ser935 phosphorylation, HEK293T cells, BacMam LRRK2-GFP G2019S. On the set-up: This high-throughput assay utilizes cells expressing full-length human LRRK2 with a C-terminal GFP tag (LRRK2-GFP); host or cells: HEK293T cells transduced with BacMam. As to conditions: +/- SD, three independent experiments, * = partial inhibition, read-out: IC50, TR-FRET cell-based assay for Ser935 phosphorylation of LRRK2. As to the method:
(§1) U-2 OS cells are maintained in growth medium (McCoy’s 5A supplemented with 10% dialyzed FBS (dFBS), 10 mM HEPES, 0.1 mM NEAA, 1 mM Sodium Pyruvate, and 100 U/mL Penicillin/100 µg/mL Streptomycin). HEK293T cells are maintained in DMEM with 10% dFBS, 10 mM HEPES, 0.1 mM NEAA and 100 U/mL Penicillin/100 µg/mL Streptomycin. SH-SY5Y cells are maintained in DMEM/F-12 medium supplemented with 10% dFBS and 100 U/mL Penicillin/100 µg/mL Streptomycin. […] GIBCO® human neural stem cells (hNSCs) were propagated as an adherent culture in StemPro® NSC SFM according to the manufacturer’s recommended protocol (Life Technologies). For BacMam transduction of U-2 OS and HEK293T, cells were harvested, mixed with various amounts of BacMam LRRK2-GFP reagent (v/v) and plated onto 6-well plates. […] Cells were assayed in 384-well format (∼20,000 cells/well) 48 hours post-transduction as above.
(§2) Transduced cells in the 384-well assay plate were incubated with indicated inhibitors (5X, 5 µL/well) for 60 to 90 minutes. During this time, 6 X lysis buffer (Life Technologies) was supplemented with 30 nM Tb-labeled anti-LRRK2 pSer935 antibody and both protease and phosphatase inhibitor cocktails (Sigma). The complete 6 X lysis buffer was added to each well (5 µL/well) and the plates were incubated at room temperature in the dark for 2 hours. […] A sigmoidal dose-response equation with varying slope was used to fit the data and generate IC50 values. Z′-factor values were calculated as: Z′-factor = 1 - [(3 × stdevno virus +3 × stdevmaxvirus)/(avgmaxvirus – avgno-virus)]. The IC50 values reported in Table 1 are the averaged numbers from three independent experiments.
A general note: Time-resolved FRET reads energy transfer from a long-lived donor to a nearby acceptor.

The target of assay [2] is T2, LRRK2 G2019S. The assay can be described thus: TR-FRET cellular assay for LRRK2 Ser935 phosphorylation, U-2 OS cells, BacMam LRRK2-GFP G2019S. Format: cell-based. On the set-up: This high-throughput assay utilizes cells expressing full-length human LRRK2 with a C-terminal GFP tag (LRRK2-GFP); host or cells: U-2 OS, SH-SY5Y, HEK293T cells or human neural stem cells transduced with BacMam. As to the method: as §1, §2

From paper PMC3429506, “Screening for Novel LRRK2 Inhibitors Using a High-Throughput TR-FRET Cellular Assay for LRRK2 Ser935 Phosphorylation” (PLoS ONE, 2012) come the findings set out here.

Structures are written as SMILES.

As a reminder, the IC50 is the midpoint of a concentration-inhibition curve.

T2 sequence (Q5S007 whole entry G2019S): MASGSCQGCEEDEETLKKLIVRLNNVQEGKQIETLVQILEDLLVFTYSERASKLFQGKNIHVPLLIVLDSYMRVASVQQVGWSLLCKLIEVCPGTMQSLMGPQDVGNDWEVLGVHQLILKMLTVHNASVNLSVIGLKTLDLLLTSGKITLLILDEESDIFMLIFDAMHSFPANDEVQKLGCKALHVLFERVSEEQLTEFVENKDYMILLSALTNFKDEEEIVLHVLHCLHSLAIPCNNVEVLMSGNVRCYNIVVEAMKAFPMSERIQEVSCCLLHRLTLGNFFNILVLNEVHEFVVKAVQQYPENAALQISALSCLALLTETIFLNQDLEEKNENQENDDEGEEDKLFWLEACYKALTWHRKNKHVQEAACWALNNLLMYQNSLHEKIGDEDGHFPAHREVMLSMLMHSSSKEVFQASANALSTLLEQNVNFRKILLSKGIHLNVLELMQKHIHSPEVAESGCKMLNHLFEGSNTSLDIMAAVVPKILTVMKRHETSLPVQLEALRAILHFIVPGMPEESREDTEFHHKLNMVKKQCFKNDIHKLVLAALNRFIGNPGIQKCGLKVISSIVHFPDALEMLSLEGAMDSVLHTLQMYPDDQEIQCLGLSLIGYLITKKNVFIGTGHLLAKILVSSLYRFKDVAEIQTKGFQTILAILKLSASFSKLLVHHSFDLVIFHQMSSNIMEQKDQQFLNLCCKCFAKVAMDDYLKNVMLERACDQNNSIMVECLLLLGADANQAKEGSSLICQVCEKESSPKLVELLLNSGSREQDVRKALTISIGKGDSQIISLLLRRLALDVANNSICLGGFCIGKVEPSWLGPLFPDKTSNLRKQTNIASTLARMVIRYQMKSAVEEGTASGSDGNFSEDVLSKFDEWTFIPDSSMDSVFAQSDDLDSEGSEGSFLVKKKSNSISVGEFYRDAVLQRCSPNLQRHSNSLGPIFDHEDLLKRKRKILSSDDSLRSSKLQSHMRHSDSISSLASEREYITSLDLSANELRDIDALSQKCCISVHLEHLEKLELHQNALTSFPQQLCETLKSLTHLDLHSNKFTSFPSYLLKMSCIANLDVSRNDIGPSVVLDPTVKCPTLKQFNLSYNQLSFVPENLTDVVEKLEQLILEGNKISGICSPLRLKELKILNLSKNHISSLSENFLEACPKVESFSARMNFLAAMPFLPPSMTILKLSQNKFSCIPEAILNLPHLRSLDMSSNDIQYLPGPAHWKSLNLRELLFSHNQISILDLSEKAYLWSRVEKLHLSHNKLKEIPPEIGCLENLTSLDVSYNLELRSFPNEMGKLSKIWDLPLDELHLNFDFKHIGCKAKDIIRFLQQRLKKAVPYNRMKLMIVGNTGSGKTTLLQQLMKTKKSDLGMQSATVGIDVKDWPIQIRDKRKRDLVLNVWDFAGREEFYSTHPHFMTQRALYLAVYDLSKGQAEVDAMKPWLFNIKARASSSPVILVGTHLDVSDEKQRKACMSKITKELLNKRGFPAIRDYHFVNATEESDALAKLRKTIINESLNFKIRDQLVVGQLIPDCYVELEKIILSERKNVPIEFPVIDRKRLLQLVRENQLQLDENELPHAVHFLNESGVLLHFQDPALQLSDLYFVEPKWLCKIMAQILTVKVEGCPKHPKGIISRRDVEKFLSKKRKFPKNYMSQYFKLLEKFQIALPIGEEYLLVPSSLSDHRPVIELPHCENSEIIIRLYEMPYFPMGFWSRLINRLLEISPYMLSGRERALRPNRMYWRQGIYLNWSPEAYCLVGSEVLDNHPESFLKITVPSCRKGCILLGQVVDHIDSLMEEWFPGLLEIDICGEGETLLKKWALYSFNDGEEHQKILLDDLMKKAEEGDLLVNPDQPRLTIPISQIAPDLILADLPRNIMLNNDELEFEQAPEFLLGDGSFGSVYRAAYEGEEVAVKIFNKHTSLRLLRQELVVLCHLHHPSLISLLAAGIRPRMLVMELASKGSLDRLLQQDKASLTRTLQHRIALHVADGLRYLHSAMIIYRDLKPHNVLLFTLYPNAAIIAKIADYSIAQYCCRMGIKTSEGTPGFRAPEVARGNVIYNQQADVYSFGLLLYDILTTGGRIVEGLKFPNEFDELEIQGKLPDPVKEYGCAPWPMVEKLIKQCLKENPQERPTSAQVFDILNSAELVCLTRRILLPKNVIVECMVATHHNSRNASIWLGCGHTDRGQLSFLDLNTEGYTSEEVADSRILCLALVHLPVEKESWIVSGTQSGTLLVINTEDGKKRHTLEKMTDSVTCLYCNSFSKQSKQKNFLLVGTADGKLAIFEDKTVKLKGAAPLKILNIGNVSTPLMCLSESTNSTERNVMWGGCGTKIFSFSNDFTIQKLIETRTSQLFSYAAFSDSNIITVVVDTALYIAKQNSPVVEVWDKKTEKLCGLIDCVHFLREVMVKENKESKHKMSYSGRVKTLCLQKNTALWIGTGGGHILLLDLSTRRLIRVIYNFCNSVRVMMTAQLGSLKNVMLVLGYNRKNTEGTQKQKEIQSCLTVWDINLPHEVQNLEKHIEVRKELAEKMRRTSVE
T1 sequence (Q5S007 whole entry G2019S): as above

As to `COc1cc(C(=O)N2CCC(N3CCN(C)CC3)CC2)ccc1Nc1ncc2c(n1)N(C)c1ccccc1C(=O)N2C` [LRRK2-IN-1], the “effect on phosphorylation of Ser910, Ser935, Ser955 and Ser973 (IP-Western)” value at GFP-LRRK2 G2019S was “inhibited phosphorylation of Ser910, Ser935, Ser955 and Ser973”. The LRRK2-GFP cellular localization entry in the assay on LRRK2-GFP was “relocalization of the wild-type, G2019S and R1441C to more fibrillar-like structures”. For the same compound, the IC50 at LRRK2 G2019S [1] was determined as 60 nM; on LRRK2 G2019S [2] (20% BacMam G2019S, 90 min, Figure 2B, read-out: IC50, inhibition of TR-FRET signal (Ser935 phosphorylation)), 30 nM; at LRRK2 G2019S [2] (G2019S, +/- SD, three independent experiments, * = partial inhibition, read-out: IC50, TR-FRET cell-based assay for Ser935 phosphorylation of LRRK2), 50 nM.
